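In this assay, cells in 96-well plates receive the compound at five concentrations for 48 hours. Endpoints are linearly interpolated between the surrounding concentrations. The concentration for 50% growth inhibition is given as GI50.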 Active and inactive are the calls of the source. No stated cut-off is given here; in the data, active = GI50 up to about 1.1 µM and inactive = higher.
Experiments:
Test in all cases: inhibition of tumour cell growth, NCI panel, 48 h
MDA-MB-435 = test system: MDA-MB-435
HCT-116 = test system: HCT-116
M14 = test system: M14
NCI-H226 = test system: NCI-H226
ACHN = test system: ACHN
NCI-H460 = test system: NCI-H460
MOLT-4 = test system: MOLT-4
PC-3 = test system: PC-3
MCF7 = test system: MCF7
HOP-62 = test system: HOP-62
CAKI-1 = test system: CAKI-1
T47D = test system: T47D
SW-620 = test system: SW-620
MDA-N = test system: MDA-N
NCI/ADR-RES = test system: NCI/ADR-RES
786-0 = test system: 786-0
SR = test system: SR
SF-295 = test system: SF-295
UACC-257 = test system: UACC-257
Hs-578T = test system: Hs-578T
OVCAR-4 = test system: OVCAR-4
IGROV-1 = test system: IGROV-1
CCRF-CEM = test system: CCRF-CEM
KM12 = test system: KM12
SF-539 = test system: SF-539
HOP-92 = test system: HOP-92
UO-31 = test system: UO-31
OVCAR-5 = test system: OVCAR-5
SK-MEL-5 = test system: SK-MEL-5
TK-10 = test system: TK-10
HT-29 = test system: HT-29
SK-MEL-2 = test system: SK-MEL-2
LOX IMVI = test system: LOX IMVI
SK-MEL-28 = test system: SK-MEL-28
NCI-H23 = test system: NCI-H23
NCI-H522 = test system: NCI-H522
EKVX = test system: EKVX
HCT-15 = test system: HCT-15
HL-60 = test system: HL-60
K562 = test system: K562
HCC 2998 = test system: HCC 2998
OVCAR-8 = test system: OVCAR-8
OVCAR-3 = test system: OVCAR-3
A498 = test system: A498
SNB-75 = test system: SNB-75
MDA-MB-231 = test system: MDA-MB-231
SK-OV-3 = test system: SK-OV-3
RPMI-8226 = test system: RPMI-8226
DU-145 = test system: DU-145
RXF 393 = test system: RXF 393
U-251 = test system: U-251
SF-268 = test system: SF-268
COLO 205 = test system: COLO 205
Malme-3M = test system: Malme-3M
UACC-62 = test system: UACC-62
SNB-19 = test system: SNB-19
A549 = test system: A549
SN12C = test system: SN12C

Measured: GI50

CC1=NN(c2cccc(Cl)c2)C(=N/c2nc3ccccc3s2)/C1=C\c1ccccc1O
inactive: MDA-MB-435 33.6 µM | HCT-116 26.7 µM | M14 38 µM | NCI-H226 22.2 µM | ACHN 25.6 µM | NCI-H460 27.1 µM | MOLT-4 34.2 µM | PC-3 20.5 µM | MCF7 29.3 µM | HOP-62 29.6 µM | CAKI-1 33.7 µM | T47D 36.4 µM | SW-620 31.6 µM | MDA-N 30.4 µM | NCI/ADR-RES 24 µM | 786-0 30.1 µM | SR 40.6 µM | SF-295 30.5 µM | UACC-257 21.9 µM | Hs-578T 22 µM | OVCAR-4 47.5 µM | IGROV-1 19.7 µM | CCRF-CEM 35.9 µM | KM12 38.9 µM | SF-539 42.8 µM | HOP-92 24.4 µM | UO-31 34 µM | OVCAR-5 61.7 µM | SK-MEL-5 19.7 µM | TK-10 37.7 µM | HT-29 39.7 µM | SK-MEL-2 18.9 µM | LOX IMVI 19.9 µM | SK-MEL-28 27.4 µM | NCI-H23 27.5 µM | NCI-H522 20 µM | EKVX 64.9 µM | HL-60 28.1 µM | K562 37 µM | HCC 2998 19.6 µM | OVCAR-8 27.4 µM | OVCAR-3 19.2 µM | A498 23.2 µM | SNB-75 25.4 µM | MDA-MB-231 21 µM | SK-OV-3 26 µM | RPMI-8226 34.8 µM | DU-145 43.8 µM | RXF 393 38.1 µM | U-251 23.8 µM | SF-268 24.2 µM
27.6 µM: HCT-15

COc1ccc(S(=O)(=O)Nc2ccc(-c3csc(N4C(=O)/C(=C/c5ccccc5[N+](=O)[O-])N=C4c4ccccc4)n3)cc2)cc1Cl
29 µM: HCT-15
inactive: MDA-MB-435 > 100 µM | HCT-116 38.8 µM | M14 24.4 µM | NCI-H226 > 100 µM | ACHN 50.5 µM | NCI-H460 40.8 µM | MOLT-4 29.9 µM | PC-3 32.6 µM | COLO 205 65.8 µM | MCF7 66.8 µM | HOP-62 > 100 µM | CAKI-1 > 100 µM | T47D 24.5 µM | SW-620 46 µM | MDA-N 60 µM | NCI/ADR-RES 86.1 µM | 786-0 > 100 µM | SR 30.8 µM | SF-295 47 µM | UACC-257 38.6 µM | Hs-578T 40.4 µM | OVCAR-4 19.7 µM | IGROV-1 16.1 µM | Malme-3M 58.9 µM | KM12 50.6 µM | SF-539 80.2 µM | HOP-92 23.3 µM | UO-31 32.3 µM | OVCAR-5 73.6 µM | SK-MEL-5 43.2 µM | TK-10 53.3 µM | UACC-62 34.3 µM | HT-29 > 100 µM | SK-MEL-2 60.5 µM | LOX IMVI 34.8 µM | SK-MEL-28 98.2 µM | NCI-H23 20.8 µM | NCI-H522 35.9 µM | HL-60 23.2 µM | SNB-19 59 µM | K562 39.5 µM | HCC 2998 22.9 µM | A549 33 µM | OVCAR-8 35.3 µM | OVCAR-3 26 µM | A498 23.8 µM | SNB-75 > 100 µM | SN12C > 100 µM | MDA-MB-231 20.3 µM | SK-OV-3 > 100 µM | DU-145 83 µM | RXF 393 50.8 µM | U-251 37.2 µM | SF-268 38.8 µM

Clc1cccc(C2ON=C(c3ccccc3)N2C23CC4CC(CC(C4)C2)C3)c1Cl (stereo not drawn)
inactive: MDA-MB-435 > 10 µM | HCT-116 > 10 µM | M14 > 10 µM | NCI-H226 > 10 µM | ACHN > 10 µM | NCI-H460 > 10 µM | MOLT-4 > 10 µM | PC-3 6.41 µM | COLO 205 > 10 µM | MCF7 > 10 µM | HOP-62 > 10 µM | CAKI-1 > 10 µM | T47D > 10 µM | SW-620 > 10 µM | MDA-N > 10 µM | NCI/ADR-RES > 10 µM | 786-0 > 10 µM | SF-295 > 10 µM | UACC-257 > 10 µM | Hs-578T > 10 µM | OVCAR-4 > 10 µM | IGROV-1 > 10 µM | CCRF-CEM > 10 µM | Malme-3M > 10 µM | KM12 > 10 µM | SF-539 > 10 µM | HOP-92 2.72 µM | UO-31 5.02 µM | OVCAR-5 > 10 µM | SK-MEL-5 > 10 µM | TK-10 > 10 µM | UACC-62 > 10 µM | HT-29 > 10 µM | SK-MEL-2 > 10 µM | LOX IMVI > 10 µM | SK-MEL-28 > 10 µM | NCI-H23 > 10 µM | NCI-H522 > 10 µM | EKVX > 10 µM | SNB-19 > 10 µM | K562 > 10 µM | HCC 2998 > 10 µM | A549 > 10 µM | OVCAR-8 > 10 µM | OVCAR-3 > 10 µM | A498 > 10 µM | SNB-75 > 10 µM | SN12C > 10 µM | MDA-MB-231 > 10 µM | SK-OV-3 > 10 µM | RPMI-8226 > 10 µM | DU-145 > 10 µM | RXF 393 > 10 µM | U-251 > 10 µM | SF-268 > 10 µM
> 10 µM: HCT-15
